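GI50 marks 50% less growth. TGI denotes the concentration required for complete inhibition of growth.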
Tests used:
Assay in all cases: inhibition of tumour cell growth, NCI panel, 384-well format
K-562 leukemia = test system: K-562 leukemia
IGROV1 ovarian = test system: IGROV1 ovarian
HS 578T breast = test system: HS 578T breast
UO-31 renal = test system: UO-31 renal
DU-145 prostate = test system: DU-145 prostate
HOP-62 NSCLC = test system: HOP-62 NSCLC
SNB-75 CNS = test system: SNB-75 CNS
A549 NSCLC = test system: A549 NSCLC
RPMI-8226 leukemia = test system: RPMI-8226 leukemia
KM12 colon = test system: KM12 colon
MCF7 breast = test system: MCF7 breast
HT29 colon = test system: HT29 colon
LOX IMVI melanoma = test system: LOX IMVI melanoma
SW-620 colon = test system: SW-620 colon
OVCAR-5 ovarian = test system: OVCAR-5 ovarian
NCI-H226 lung = test system: NCI-H226 lung
OVCAR-3 ovarian = test system: OVCAR-3 ovarian
NCI-H23 lung = test system: NCI-H23 lung
M14 melanoma = test system: M14 melanoma
MDA-MB-231 breast = test system: MDA-MB-231 breast
MDA-MB-435 melanoma = test system: MDA-MB-435 melanoma
UACC-257 melanoma = test system: UACC-257 melanoma
SN12C renal = test system: SN12C renal
CAKI-1 renal = test system: CAKI-1 renal
RXF 393 renal = test system: RXF 393 renal
NCI/ADR-RES ovarian = test system: NCI/ADR-RES ovarian
SF-539 CNS = test system: SF-539 CNS
HOP-92 NSCLC = test system: HOP-92 NSCLC
UACC-62 melanoma = test system: UACC-62 melanoma

`CC(C)(F)C[C@H](N[C@@H](c1ccc(-c2ccc(S(C)(=O)=O)cc2)cc1)C(F)(F)F)C(=O)NC1(C#N)CC1` was tested, and the GI50 (K-562 leukemia) was > 100 µM, the TGI (K-562 leukemia) was > 100 µM and the GI50 (IGROV1 ovarian) was > 100 µM. The TGI (IGROV1 ovarian) was > 100 µM, the GI50 (HS 578T breast) was 21.2 µM and the TGI (HS 578T breast) was 45.3 µM. The GI50 (UO-31 renal) was > 100 µM, the TGI (UO-31 renal) was > 100 µM and the GI50 (DU-145 prostate) was 46.4 µM. The TGI (DU-145 prostate) was > 100 µM, the GI50 (HOP-62 NSCLC) was 22.8 µM and the TGI (HOP-62 NSCLC) was 63 µM. It also gave a GI50 (SNB-75 CNS) of 20.5 µM, a TGI (SNB-75 CNS) of 37.3 µM and a GI50 (A549 NSCLC) of 34.9 µM. For the same compound, the TGI (A549 NSCLC) was > 100 µM, the GI50 (RPMI-8226 leukemia) was 55.9 µM and the TGI (RPMI-8226 leukemia) was > 100 µM. For the same compound, the GI50 (KM12 colon) was 43.6 µM, the TGI (KM12 colon) was > 100 µM and the GI50 (MCF7 breast) was 27.3 µM. For the same compound, the TGI (MCF7 breast) was 91.1 µM, the GI50 (HT29 colon) was > 100 µM and the TGI (HT29 colon) was > 100 µM. The GI50 (LOX IMVI melanoma) was 59.3 µM, the TGI (LOX IMVI melanoma) was > 100 µM and the GI50 (SW-620 colon) was > 100 µM. The TGI (SW-620 colon) was > 100 µM, the GI50 (OVCAR-5 ovarian) was > 100 µM and the TGI (OVCAR-5 ovarian) was > 100 µM. It also gave a GI50 (NCI-H226 lung) of 23.5 µM, a TGI (NCI-H226 lung) of 54.6 µM and a GI50 (OVCAR-3 ovarian) of 31.1 µM. For the same compound, the TGI (OVCAR-3 ovarian) was 76.7 µM, the GI50 (NCI-H23 lung) was 30.9 µM and the TGI (NCI-H23 lung) was 83 µM. For the same compound, the GI50 (M14 melanoma) was 71.5 µM, the TGI (M14 melanoma) was > 100 µM and the GI50 (MDA-MB-231 breast) was 39.6 µM. For the same compound, the TGI (MDA-MB-231 breast) was > 100 µM, the GI50 (MDA-MB-435 melanoma) was 96.2 µM and the TGI (MDA-MB-435 melanoma) was > 100 µM. It also gave a GI50 (UACC-257 melanoma) of 26.7 µM, a TGI (UACC-257 melanoma) of 55.4 µM and a GI50 (SN12C renal) of 34.9 µM. For the same compound, the TGI (SN12C renal) was > 100 µM, the GI50 (CAKI-1 renal) was 30.5 µM and the TGI (CAKI-1 renal) was > 100 µM. The GI50 (RXF 393 renal) was 18.3 µM, the TGI (RXF 393 renal) was 35.3 µM and the GI50 (NCI/ADR-RES ovarian) was 88.1 µM. The TGI (NCI/ADR-RES ovarian) was > 100 µM, the GI50 (SF-539 CNS) was 23.1 µM and the TGI (SF-539 CNS) was 44.1 µM. For the same compound, the GI50 (HOP-92 NSCLC) was 11.2 µM, the TGI (HOP-92 NSCLC) was 28.9 µM and the GI50 (UACC-62 melanoma) was 42.1 µM. The TGI (UACC-62 melanoma) was > 100 µM.

Source: PubChem BioAssay (NCI)
